From US11919885B1, “4-(4-bromophenyl)-2-alkyloxy-6-(2-oxo-2H-1-benzopyran-3-yl)pyridine-3-carbonitrile as antimicrobial compounds” (KING FAISAL UNIVERSITY, priority 2023, dated 2024)

How the values were obtained:
Format in all cases: cell-based
[1] = system: Aspergillus flavus; test: Agar plate disc-diffusion, antifungal activity (inhibition zone); conditions: Sabouraud's dextrose agar, 37° C., 72 h, DMSO control zone subtracted; for inhibition zone, Aspergillus flavus, A: A = concentration of comp. = 10,000 μL; for inhibition zone, Aspergillus flavus, B: B = concentration of comp. = 30.000 μL; for inhibition zone, Aspergillus flavus, C: C = concentration of comp. = 50,000 μL
Method: (§1) The agar plate disc-diffusion method was applied. Sterilized filter papers (6 mm in diameter) were wetted with 10 μL of a solution of 4-(4-Bromophenyl)-2-ethoxy-6-(2-oxo-2H-1-benzopyran-3-yl)-4-phenylpyridine-3-carbonitrile (1) or 4-(4-Bromophenyl)-2-methoxy-6-(2-oxo-2H-1-benzopyran-3-yl)-4-phenylpyridine-3-carbonitrile (2) to be tested, containing […], and the discs were allowed to air dry. The discs were then placed onto the surface of agar plates (nutrient agar for bacteria and Sabouraud's dextrose agar for fungi) seeded with the test organism. Each plate contained 15 mL of the agar medium, previously seeded with 0.2 mL of the broth culture of each organism pregrown for 18 hours. The plates were incubated at 37° C. for 48 h, and 72 h for fungi. The inhibition zones were measured in mm. Discs impregnated with DMSO were used as a control, and its inhibition zone was subtracted from the tested compound actual inhibition zone.
(§2) The results of the antimicrobial testing can be observed in Tables 1 and 2, below, using ciprofloxacin as a reference.

[2] = system: Chrysosporium keratinophilum; test: as above; conditions: Sabouraud's dextrose agar, 37° C., 72 h, DMSO control zone subtracted; for inhibition zone, Chrysosporium keratinophilum, A: A = concentration of comp. = 10,000 μL; for inhibition zone, Chrysosporium keratinophilum, B: B = concentration of comp. = 30.000 μL; for inhibition zone, Chrysosporium keratinophilum, C: C = concentration of comp. = 50,000 μL
Method: as §1, §2

[3] = system: Pseudomonas aeruginosa; test: Agar plate disc-diffusion, antibacterial activity (inhibition zone); conditions: nutrient agar, 37° C., 48 h, DMSO control zone subtracted; for inhibition zone, Pseudomonas aeruginosa, A: A = concentration of comp. = 10,000 μL; for inhibition zone, Pseudomonas aeruginosa, B: B = concentration of comp. = 30.000 μL; for inhibition zone, Pseudomonas aeruginosa, C: C = concentration of comp. = 50,000 μL
Method: as §1, §2

[4] = system: Escherichia coli; test: as above; conditions: nutrient agar, 37° C., 48 h, DMSO control zone subtracted; for inhibition zone, Escherichia coli, A: A = concentration of comp. = 10,000 μL; for inhibition zone, Escherichia coli, B: B = concentration of comp. = 30.000 μL; for inhibition zone, Escherichia coli, C: C = concentration of comp. = 50,000 μL
Method: as §1, §2

[5] = system: Staphylococcus aureus; test: as above; conditions: nutrient agar, 37° C., 48 h, DMSO control zone subtracted; for inhibition zone, Staphylococcus aureus, A: A = concentration of comp. = 10,000 μL; for inhibition zone, Staphylococcus aureus, B: B = concentration of comp. = 30.000 μL; for inhibition zone, Staphylococcus aureus, C: C = concentration of comp. = 50,000 μL
Method: as §1, §2

[6] = system: Bacillus cereus; test: as above; conditions: nutrient agar, 37° C., 48 h, DMSO control zone subtracted; for inhibition zone, Bacillus Cereus, A: A = concentration of comp. = 10,000 μL; for inhibition zone, Bacillus Cereus, B: B = concentration of comp. = 30.000 μL; for inhibition zone, Bacillus Cereus, C: C = concentration of comp. = 50,000 μL
Method: as §1, §2

Row | Compound | inhibition zone, Aspergillus flavus, A [1] | inhibition zone, Aspergillus flavus, B [1] | inhibition zone, Aspergillus flavus, C [1] | inhibition zone, Chrysosporium keratinophilum, A [2] | inhibition zone, Chrysosporium keratinophilum, B [2] | inhibition zone, Chrysosporium keratinophilum, C [2] | inhibition zone, Pseudomonas aeruginosa, A [3] | inhibition zone, Pseudomonas aeruginosa, B [3] | inhibition zone, Pseudomonas aeruginosa, C [3] | inhibition zone, Escherichia coli, A [4] | inhibition zone, Escherichia coli, B [4] | inhibition zone, Escherichia coli, C [4] | inhibition zone, Staphylococcus aureus, A [5] | inhibition zone, Staphylococcus aureus, B [5] | inhibition zone, Staphylococcus aureus, C [5] | inhibition zone, Bacillus Cereus, A [6] | inhibition zone, Bacillus Cereus, B [6] | inhibition zone, Bacillus Cereus, C [6]
1 | CCOc1nc(-c2cc3ccccc3oc2=O)cc(-c2ccc(Br)cc2)c1C#N [Compound 1, 4-(4-Bromophenyl)-2-ethoxy-6-(2-oxo-2H-1-benzopyran-3-yl)pyridine-3-carbonitrile] | 28 mm | 30 mm | 41 mm | 24 mm | 29 mm | 42 mm | 25 mm | 30 mm | 39 mm | 30 mm | 40 mm | 50 mm | 20 mm | 25 mm | 35 mm | 30 mm | 34 mm | 40 mm
2 | O=C(O)c1cn(C2CC2)c2cc(N3CCNCC3)c(F)cc2c1=O [Cip., ciprofloxacin, reference compound] | 29 mm | 30 mm | 42 mm | 29 mm | 30 mm | 53 mm | 29 mm | 30 mm | 53 mm | 30 mm | 39 mm | 60 mm | 43 mm | 44 mm | 53 mm | 29 mm | 30 mm | 42 mm
3 | COc1nc(-c2cc3ccccc3oc2=O)cc(-c2ccc(Br)cc2)c1C#N [Compound 2, 4-(4-Bromophenyl)-2-methoxy-6-(2-oxo-2H-1-benzopyran-3-yl)pyridine-3-carbonitrile] | 20 mm | 21 mm | 31 mm | 25 mm | 28 mm | 40 mm | 27 mm | 33 mm | 40 mm | 29 mm | 37 mm | 48 mm | 15 mm | 22 mm | 30 mm | 25 mm | 32 mm | 37 mm
